Assay results reported in patent publication US8846711B2, “Heterocyclic acrylamides and their use as pharmaceuticals” (Fab Pharma S.A.S., priority 2009, dated 2014).
Converted amounts (≈) assume the structure as drawn.

Assays:
Experiment in all cases: MIC determination using agar dilution method
Type in all cases: cell-based
[1] = tested on: Staphylococcus aureus NRS120; conditions: MRSA / NRS 120, read-out: MIC (μg/ml) NRS120
Procedure: (§1) Antibacterial activity was determined on strains from Mutabilis internal collection.
(§2) This protocol is compliant with Clinical Laboratory Standards Institute (CLSI) methodology as described in M7-A7 document of the CLSI. The compound to be tested is incorporated into Mueller-Hinton Agar medium (Fluka, Reference 70191) at one concentration per plate according to a geometric series of reason 2. Plates are inoculated with mid-log phase bacteria (inoculum=1×10^4 cfu/spot) and incubated overnight at 35° C. […] All manipulations, but compound handling (in pure DMSO), are performed under sterile conditions. The final DMSO concentration of DMSO in the plates is 2%. Vancomycin is used as reference.

[2] = tested on: Staphylococcus aureus NRS22; conditions: MRSA / NRS 22, read-out: MIC (μg/ml) NRS22
Procedure: as §1, §2

[3] = tested on: Staphylococcus aureus NRS382; conditions: MRSA / NRS 382, read-out: MIC (μg/ml) NRS382
Procedure: as §1, §2

[4] = tested on: Staphylococcus aureus NRS123; conditions: MRSA / NRS 123, read-out: MIC (μg/ml) NRS123
Procedure: as §1, §2

[5] = tested on: Staphylococcus aureus NRS383; conditions: MRSA / NRS 383, read-out: MIC (μg/ml) NRS383
Procedure: as §1, §2

[6] = tested on: Staphylococcus aureus NRS262; conditions: MSSA / NRS 262, read-out: MIC (μg/ml) NRS262
Procedure: as §1, §2

[7] = tested on: Staphylococcus aureus NRS484; conditions: MRSA / NRS 484, read-out: MIC (μg/ml) NRS484
Procedure: as §1, §2

[8] = tested on: Staphylococcus aureus NRS100; conditions: MRSA / NRS 100, read-out: MIC (μg/ml) NRS100
Procedure: as §1, §2

[9] = tested on: Staphylococcus aureus NRS386; conditions: MRSA / NRS 386, read-out: MIC (μg/ml) NRS386
Procedure: as §1, §2

[10] = tested on: Staphylococcus aureus NRS269; conditions: MRSA / NRS 269, read-out: MIC (μg/ml) NRS269
Procedure: as §1, §2

[11] = tested on: Staphylococcus aureus NRS127; conditions: MRSA / NRS 127, read-out: MIC (μg/ml) NRS127
Procedure: as §1, §2

[12] = tested on: Staphylococcus aureus NRS385; conditions: MRSA / NRS 385, read-out: MIC (μg/ml) NRS385
Procedure: as §1, §2

[13] = tested on: Staphylococcus aureus NRS192; conditions: MRSA / NRS 192, read-out: MIC (μg/ml) NRS192
Procedure: as §1, §2

[14] = tested on: Staphylococcus aureus NRS121; conditions: MRSA / NRS 121, read-out: MIC (μg/ml) NRS121
Procedure: as §1, §2

[15] = tested on: Staphylococcus aureus NRS482; conditions: MRSA / NRS 482, read-out: MIC (μg/ml) NRS482
Procedure: as §1, §2

[16] = tested on: Staphylococcus aureus NRS483; conditions: MRSA / NRS 483, read-out: MIC (μg/ml) NRS483
Procedure: as §1, §2

[17] = tested on: Staphylococcus aureus NRS130; conditions: MSSA / NRS 130, read-out: MIC (μg/ml) NRS130
Procedure: as §1, §2

[18] = tested on: Staphylococcus aureus NRS384; conditions: MRSA / NRS 384, read-out: MIC (μg/ml) NRS384
Procedure: as §1, §2

[19] = tested on: Staphylococcus aureus NRS128; conditions: MSSA / NRS 128, read-out: MIC (μg/ml) NRS128
Procedure: as §1, §2

[20] = tested on: Staphylococcus aureus NRS119; conditions: MRSA / NRS 119, read-out: MIC (μg/ml) NRS119
Procedure: as §1, §2

O=C1CCc2cc(/C=C/C(=O)N3CC(OCc4cccs4)C3)cnc2N1 [Example 12, 6-{(1E)-3-Oxo-3-[3-(2-thienylmethoxy)azetidin-1-yl]prop-1-en-1-yl}-3,4-dihydro-1,8-naphthyridin-2(1H)-one]
MIC [1]: 2 µg/mL (≈ 5.41 µM)
MIC [2]: 4 µg/mL (≈ 10.8 µM)
MIC [3]: 4 µg/mL (≈ 10.8 µM)
MIC [4]: 2 µg/mL (≈ 5.41 µM)
MIC [5]: 4 µg/mL (≈ 10.8 µM)
MIC [6]: 4 µg/mL (≈ 10.8 µM)
MIC [7]: 4 µg/mL (≈ 10.8 µM)
MIC [8]: 2 µg/mL (≈ 5.41 µM)
MIC [9]: 4 µg/mL (≈ 10.8 µM)
MIC [10]: 4 µg/mL (≈ 10.8 µM)
MIC [11]: 2 µg/mL (≈ 5.41 µM)
MIC [12]: 2 µg/mL (≈ 5.41 µM)
MIC [13]: 4 µg/mL (≈ 10.8 µM)
MIC [14]: 2 µg/mL (≈ 5.41 µM)
MIC [15]: 4 µg/mL (≈ 10.8 µM)
MIC [16]: 4 µg/mL (≈ 10.8 µM)
MIC [17]: 2 µg/mL (≈ 5.41 µM)
MIC [18]: 4 µg/mL (≈ 10.8 µM)
MIC [19]: 1 µg/mL (≈ 2.71 µM)
MIC [20]: 2 µg/mL (≈ 5.41 µM)
